Experimental findings from ChEMBL document CHEMBL1201862, “PubChem BioAssay data set” (2004) are described below.

Among the test systems are SK-MEL-5; MCF7; LOX IMVI; CAKI-1; NCI/ADR-RES; M14; EKVX; NCI-H226; SF-539; A549; HOP-92; HT-29; CCRF-CEM; SK-MEL-28; HOP-62; OVCAR-8; ACHN; UO-31; RPMI-8226.
Common to all, as to experiment: inhibition of tumour cell growth, NCI panel, 48 h

The structures appear in SMILES notation.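 Briefly, cells in 96-well plates were exposed to five compound concentrations for 48 h, and endpoints were estimated by linear interpolation. The concentration for 50% growth inhibition is given as GI50.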 The source made the active and inactive calls. Rule as the data show it: active = GI50 up to about 1.1 µM and inactive = higher.

With `c1ccc(OCc2nnc(CCCCCCCCc3nnc(COc4ccccc4)o3)o2)cc1`, the GI50 with SK-MEL-5, with MCF7, with LOX IMVI, in the assay on CAKI-1, with NCI/ADR-RES and in the assay with M14 was > 100 µM (inactive) throughout. The GI50 with EKVX is > 100 µM (inactive); with NCI-H226 it was > 100 µM (inactive); with SF-539, 32.2 µM (inactive); in the assay with A549, > 100 µM (inactive); with HOP-92, 55.6 µM (inactive); in the assay with HT-29 it was > 100 µM (inactive). Besides, the GI50 in the assay with CCRF-CEM is > 100 µM (inactive); in the assay on SK-MEL-28 it was > 100 µM (inactive); in the assay on HOP-62, 97.3 µM (inactive); in the assay with OVCAR-8, 28.9 µM (inactive); in the assay on ACHN, > 100 µM (inactive); in the assay on UO-31, > 100 µM (inactive).

For the compound `CN(C)CCNC(=O)c1cc(Cl)cc2cc3ccccc3nc12`, the GI50 was 1.31 µM (inactive) with SK-MEL-5; 0.757 µM (active) with MCF7; 0.597 µM (active) with LOX IMVI; 0.766 µM (active) with NCI/ADR-RES; 0.721 µM (active) in the assay with RPMI-8226; 1.43 µM (inactive) in the assay with EKVX. Also, the GI50 in the assay with NCI-H226 was 0.843 µM (active); with SF-539, 1.62 µM (inactive); in the assay on A549, 0.557 µM (active); with HT-29 it was 0.455 µM (active); in the assay on CCRF-CEM, 0.498 µM (active); with SK-MEL-28 it was 1.76 µM (inactive). For the same compound, the GI50 in the assay with HOP-62 is 1.62 µM (inactive); with OVCAR-8, 0.542 µM (active); in the assay with UO-31 it was 1.02 µM (active).

Regarding `C=C1C[C@@H](O)C[C@@]2(C)C[C@@H]3OC(=O)C(=C)[C@@H]3C[C@H]12`, the GI50 was 3.51 µM (inactive) in the assay on SK-MEL-5; 3.78 µM (inactive) in the assay on MCF7; 4.46 µM (inactive) in the assay on LOX IMVI; 4.22 µM (inactive) in the assay on CAKI-1; 6.55 µM (inactive) in the assay on NCI/ADR-RES; 2.92 µM (inactive) with RPMI-8226. The GI50 in the assay on NCI-H226 is 14 µM (inactive); in the assay on SF-539 it was 9.68 µM (inactive); with A549, 23 µM (inactive); in the assay with HOP-92, 13.1 µM (inactive); with HT-29, 2.94 µM (inactive); with CCRF-CEM, 3.56 µM (inactive). In addition, the GI50 in the assay on SK-MEL-28 was 4.82 µM (inactive); in the assay with HOP-62 it was 15.4 µM (inactive); with OVCAR-8, 16 µM (inactive); in the assay on UO-31, 4.85 µM (inactive).

As for `CCCCCCSc1nc(N)nc2nc[nH]c12`, the GI50 in the assay with SK-MEL-5 is 20.3 µM (inactive); in the assay on MCF7 it was 30.5 µM (inactive); with LOX IMVI, 26.1 µM (inactive); in the assay with NCI/ADR-RES, 37.5 µM (inactive); in the assay on RPMI-8226 it was 60.1 µM (inactive); in the assay with EKVX it was 60.1 µM (inactive). The GI50 is 32.1 µM (inactive) in the assay on NCI-H226; 35.3 µM (inactive) with SF-539; 30 µM (inactive) in the assay with A549; 28.8 µM (inactive) in the assay with HOP-92; 34.4 µM (inactive) with HT-29; 46.6 µM (inactive) in the assay on CCRF-CEM. Moreover, the GI50 was 59.3 µM (inactive) in the assay on SK-MEL-28, 34.5 µM (inactive) in the assay on HOP-62, 42.5 µM (inactive) with OVCAR-8 and 24.3 µM (inactive) in the assay with UO-31.

With `O=C(O)C(F)(F)C(F)(F)C(F)(F)C(F)(F)C(F)(F)C(F)(F)C(F)(F)C(F)(F)F`, the GI50 was 80 µM (inactive) in the assay on SK-MEL-5; 57 µM (inactive) in the assay with MCF7; 42.3 µM (inactive) in the assay with LOX IMVI; > 100 µM (inactive) with CAKI-1; 44.9 µM (inactive) with NCI/ADR-RES; 28.1 µM (inactive) with M14. The GI50 was 48 µM (inactive) with EKVX; 34.2 µM (inactive) with NCI-H226; 43.2 µM (inactive) with SF-539; 47.8 µM (inactive) with A549; 24.9 µM (inactive) in the assay with HOP-92; 48.2 µM (inactive) with HT-29. In addition, the GI50 in the assay on CCRF-CEM is 28.2 µM (inactive); in the assay with SK-MEL-28 it was > 100 µM (inactive); in the assay with HOP-62, 52.6 µM (inactive); in the assay with OVCAR-8 it was 43.9 µM (inactive); in the assay with ACHN it was 65.3 µM (inactive); with UO-31, 47.5 µM (inactive).
